Consider 2 compounds from PMC12503906, “Novel Pyrazolo [1,5‐a]−1,3,5‐Triazine Derivatives as CDK7 Inhibitors: Synthesis and Biological Insights in Pancreatic Ductal Adenocarcinoma Models” (Chemmedchem, 2025).

Holding throughout (format): cell-based
One test deals with PATU‐T GR. The test can be described thus: SRB chemosensitivity assay, gemcitabine resistant PATU‐T GR cells. On the procedure:
(§1) Three lines of immortalized PDAC cells were selected as representative phenotypes: mesenchymal (PATU‐T), quasimesenchymal (PANC‐1), and an epithelial clone of SUIT 2 cells (SUIT 2.28). Cells were cultured in noncoated T‐75 and T‐25 flasks under adherent conditions, using 1× DMEM (Gibco, 41,966,029) for PATU‐T and RPMI (Gibco, 21,875,034) for SUIT 2.28 and PANC‐1, both supplemented with 10% NBCS and 1% P/S. Additional employed models were the PDAC3 cells, a primary cell culture, the PSCs, which were immortalized healthy pancreatic cells, and the PATU‐T‐GR, which was a gemcitabine resistant model of PATU‐T. PDAC3 and PSCs were cultivated using complete RPMI medium, while PATU‐T‐GR required complete DMEM medium. For seeding, cells were detached with Trypsin‐EDTA (0.05%) (GibcoTM, 25,300–096) and were consequently counted using the Automated Cell Counter (Luna‐II, Westburg). Cells were then plated on 96‐ or 6‐well plates depending on the planned experiment.
(§2) The Sulforhodamine B (SRB) chemosensitivity assay was used to measure cytotoxicity and cell proliferation post drug treatment. At day 0, 3–6 × 10^3 cells were seeded in a 96‐well plate, depending on the cell line. At day 1, cells were attached and ready to be treated. For the calculation of the IC50, drug dilutions for the compounds 1b, 1c, 1d, 1e, 1g, 1hr, 1i, 1j, and LDC4297 (MedChemExpress, HY‐12,653) were prepared in dilution trays and eight different concentrations were included. These were added in triplicates to the cells, which were then incubated for […] at 37 °C in 5% CO2. During day 1, the control plate was fixed with 50% Trichloroacetic acid (TCA), as intended to be the baseline plate used for the normalization of the data. 72 h post‐treatment, the cells were fixed with TCA, and placed at 4 °C for about 2 h. The plates were then washed with distillated water and left to dry under the hood with ventilation. Subsequently, plates were stained with 0.4% SRB for 15 min and washed with 1% acetic acid to remove excess stain. Once dried again, the protein‐bound SRB was dissolved in 10 mM TRIS, and the plates were placed on a shaker for 10 min per plate. Lastly, the absorbance was measured at 492 nm with a spectrophotometer (Synergy HT, BioTek). The absorbance data obtained were normalized to the day 1 control, and the percentage of cell growth in relation to the control was calculated using the following formula. (1) %Cell growth=Mean OD treatment−Mean OD day0/Mean OD control−Mean OD day0×100
The percentage of proliferation and their respective standard deviations were used to perform statistical analysis in GraphPad Prism software v 10 (GraphPad Software, San Diego, CA). Data were normalized to the day 0 control and to their own untreated 72 h control. […]
In general terms: Sulforhodamine B stains cellular protein and so reports cell mass.

The subject of test [1] is PDAC3. Kind of test: Cell cycle analysis (FACS, PI staining), PDAC3. As to conditions: for percentage of cells in the G2‐M phase: untreated 13.3%; for percentage of cells in the G0‐G1 phase: untreated 50.0%; for percentage of cells in the S phase: untreated 36.7%. On the procedure:
(§3) Modulation of the cell cycle was analyzed via flow cytometry. Cells (5 × 10^5 cells mL^− ^1) were seeded in 6‐well plates and were incubated at 37 °C overnight. Cells were treated with the compounds 1b and 1g at two different concentrations (1 × IC50 and 4 × IC50, according to each cell line) and were again incubated for 24 and 72 h. After treatment, cells were harvested with trypsin and were collected in specific fluorescence‐activated cell sorting (FACS) tubes. Cells were then washed with PBS and centrifuged at 1500 rpm for 5 min, in order to form a pellet. These pellets were fixed in 1 mL of ice‐cold 70% ethanol, added drop by drop during vortex, and placed in the refrigerator at 4 °C. After overnight incubation, the cells were washed twice with PBS, centrifuged (5 min at 1500 rpm), resuspended in 50 µL of RNase (100 µg mL^− ^1), and incubated for 30 min at 37 °C. Finally, 200 µL of propidium iodide solution (PI, 50 µg mL^− ^1) was added, and the cell distribution in the various phases of the cell cycle was analyzed via BD LSRFortessa Cell Analyzer. Data analysis was carried out with FACSdiva software (Becton Dickinson), while cell cycle distribution was determined using FCS express software.

The subject of test [2] is SUIT 2.28. Kind of test: Annexin V apoptosis assay, SUIT 2.28. As to conditions: 1× and 4 × IC50. On the procedure: In order to investigate the apoptotic properties of the compounds 1b and 1g, the Annexin V apoptosis assay was performed. Annexins are calcium‐dependent phospholipid binding proteins, which are able to bind to phosphatidylserine (PS). The externalization of PS residues on the outer membrane of apoptotic cells can be detected by Annexin V.
For this assay, cells were seeded in a 96‐well plate at a concentration of 13.5 × 10^3 and 4.5 × 10^3 /well respectively for the 24 and 72 h experiments. The next day cells were treated with compounds 1b and 1g at 1 × IC50 and 4 × IC50 concentrations. The apoptosis assay was performed 24 and 72 h post‐treatment following the BD Pharmingen FITC Annexin V Apoptosis Detection Kit I (BD Biosciences, 556,547). The supernatant was aspirated, and cells were washed with phosphate‐buffered saline (PBS). Cells were consequently treated with binding buffer BBA + Annexin V (1:100) and were incubated in the dark at RT for 10 min. The supernatant was removed, and the cells were washed with BBA (1:10). Cells were then incubated with BBA + PI (1:100) and were immediately read with the spectrophotometer at ex. 485/ em. 535. Two different programs were used to read the Annexin V and the PI absorbance. Lastly, 100 µL of PBS were added to each well before being fixed with TCA. This was followed by the SRB assay to standardize fluorescence data according to cell count. Data were exported into GraphPad Prism 10 for statistical analysis.

Test [3] relates to PDAC3. Kind of test: SRB chemosensitivity assay, primary PDAC3 cells. How it is done: as §1, §2
(§4) The percentage of proliferation and their respective standard deviations were used to perform statistical analysis in GraphPad Prism software v 10 (GraphPad Software, San Diego, CA). Data were normalized to the day 0 control and to their own untreated 72 h control. These were transformed into logarithmic data, and log(inhibitor) versus response analysis was performed for obtaining the IC50 values per cell lines. Each experiment was conducted in triplicates.

The subject of a further test is PANC‐1. The test can be described thus: SRB chemosensitivity assay, PANC‐1 cells. As to conditions: Homo sapiens, read-out: IC50 PANC‐1. How it is done:
as §1, §2, §4

Test [4] concerns SUIT 2.28. The test can be described thus: Cell cycle analysis (FACS, PI staining), SUIT 2.28. To be noted: for percentage of cells in the G0‐G1 phase: untreated 24.6%; for percentage of cells in the G2‐M phase: untreated 32.7%; for percentage of cells in the S phase: untreated 42.7%. On the procedure: as §3

Several values for one entry are separate records, joined by “and”; a condition that tells them apart may be missing. Equal entries are not always repeated. Where two headings read alike, the source gives them in different places.

What is called IC50 is the concentration at which inhibition is half-maximal. With `Nc1ncnc2cc(-c3c[nH]c4ccc(Br)cc34)nn12` [Compound 1b, 7‐(5‐Bromo‐1H‐indol‐3‐yl)pyrazolo[1,5‐a][1,3,5]triazin‐4‐amine], the IC50 in the test on PATU‐T GR (SRB, gemcitabine resistant PATU‐T GR, average ± SEM, triplicate; read-out: IC50 PATU‐GR) is 1920 nM and 1900 nM; in the test on PDAC3 [3] (PDAC-3, SRB, primary cell line, average ± SEM, triplicate, read-out: IC50 PDAC3), 1270 nM; in the test on PDAC3 [3] (SRB, primary cell line, average ± SEM, triplicate, read-out: IC50 PDAC3) it was 1300 ± 200 nM; in the test on PANC‐1 (PANC-1, SRB, 72 h of treatment, average ± SEM, triplicate), 4300 ± 800 nM. The “percentage of cells in the G2‐M phase” value in the test with PDAC3 [1] (PDAC3, 1 × IC50, 24 h) worked out at 11.1%; in the test on PDAC3 [1] (PDAC3, 4 × IC50, 24 h), 6.9%; in the test on SUIT 2.28 [4] (SUIT 2.28, 1 × IC50, 24 h) it was 18.7%; in the test on SUIT 2.28 [4] (SUIT 2.28, 4 × IC50, 24 h) it was 21.6%. Further, the “percentage of cells in the G0‐G1 phase” value with PDAC3 [1] (PDAC3, 1 × IC50, 24 h) was found to be 44.0%; with PDAC3 [1] (PDAC3, 4 × IC50, 24 h) it was 41.6%; in the test on SUIT 2.28 [4] (SUIT 2.28, 1 × IC50, 24 h), 41.0%; with SUIT 2.28 [4] (SUIT 2.28, 4 × IC50, 24 h) it was 41.6%. In addition, the “percentage of cells in the S phase” value in the test on PDAC3 [1] (PDAC3, 4 × IC50, 24 h) amounted to 51.6%; in the test with SUIT 2.28 [4] (SUIT 2.28, 1 × IC50, 24 h), 40.3%; in the test on SUIT 2.28 [4] (SUIT 2.28, 4 × IC50, 24 h), 34.9%. For the same compound, the apoptotic index result is on record as “below 1.5” in the test with SUIT 2.28 [2] (SUIT 2.28, 24 h) and “higher apoptotic index” with SUIT 2.28 [2] (SUIT 2.28, 72 h).

`Cn1cc(-c2cc3ncnc(N)n3n2)c2cc(Br)ccc21` [Compound 1g, 7‐(5‐Bromo‐1‐methyl‐1H‐indol‐3‐yl)pyrazolo[1,5‐a][1,3,5]triazin‐4‐amine]: the IC50 in the test on PATU‐T GR (read-out: IC50 PATU‐GR, SRB, gemcitabine resistant PATU‐T GR, average ± SEM, triplicate) was determined as 2700 nM; in the test with PATU‐T GR (read-out: IC50 PATU‐GR; SRB, gemcitabine resistant PATU‐T GR, average ± SEM, triplicate) it was 2700 ± 500 nM; with PDAC3 [3] (PDAC-3, read-out: IC50 PDAC3, SRB, primary cell line, average ± SEM, triplicate), 684 nM; in the test on PDAC3 [3] (read-out: IC50 PDAC3, SRB, primary cell line, average ± SEM, triplicate), 700 ± 100 nM; in the test with PANC‐1 (PANC-1, 72 h), 2900 ± 800 nM. Further, the “percentage of cells in the G2‐M phase” value in the test on PDAC3 [1] (PDAC3, 1 × IC50, 24 h) is on record as 13.3%; with PDAC3 [1] (PDAC3, 4 × IC50, 24 h) it was 9.8%; in the test with SUIT 2.28 [4] (SUIT 2.28, 1 × IC50, 24 h), 25.9%; in the test on SUIT 2.28 [4] (SUIT 2.28, 4 × IC50, 24 h), 25.4%. Besides, the “percentage of cells in the S phase” value in the test with PDAC3 [1] (PDAC3, 1 × IC50, 24 h) was found to be 30.8%; in the test with PDAC3 [1] (PDAC3, 4 × IC50, 24 h), 30.4%; with SUIT 2.28 [4] (SUIT 2.28, 1 × IC50, 24 h), 37.8%; with SUIT 2.28 [4] (SUIT 2.28, 4 × IC50, 24 h), 34.2%. Besides, the “percentage of cells in the G0‐G1 phase” value is 55.9% in the test with PDAC3 [1] (PDAC3, 1 × IC50, 24 h); 59.8% with PDAC3 [1] (PDAC3, 4 × IC50, 24 h); 36.2% in the test with SUIT 2.28 [4] (SUIT 2.28, 1 × IC50, 24 h); 40.3% in the test on SUIT 2.28 [4] (SUIT 2.28, 4 × IC50, 24 h). Also, the apoptotic index result was “below 1.5” in the test with SUIT 2.28 [2] (SUIT 2.28, 24 h) and “higher apoptotic index” in the test with SUIT 2.28 [2] (SUIT 2.28, 72 h).
